# Measured values published in ChEMBL document CHEMBL2331173, “Water-mediated interactions influence the binding of thapsigargin to sarco/endoplasmic reticulum calcium adenosinetriphosphatase” (J Med Chem, 2013).
# Target: Sarcoplasmic/endoplasmic reticulum calcium ATPase 1 (Oryctolagus cuniculus, UniProt P04191)
# Assay: Binding affinity to SERCA1a in sarcoplasmic reticulum vesicles of rabbit skeletal muscle after 2.5 to 6 mins by spectrophotometric analysis
# Set-up: species or system Muscle tissue
# Sarcoplasmic/endoplasmic reticulum calcium ATPase 1, sequence (P04191 whole entry): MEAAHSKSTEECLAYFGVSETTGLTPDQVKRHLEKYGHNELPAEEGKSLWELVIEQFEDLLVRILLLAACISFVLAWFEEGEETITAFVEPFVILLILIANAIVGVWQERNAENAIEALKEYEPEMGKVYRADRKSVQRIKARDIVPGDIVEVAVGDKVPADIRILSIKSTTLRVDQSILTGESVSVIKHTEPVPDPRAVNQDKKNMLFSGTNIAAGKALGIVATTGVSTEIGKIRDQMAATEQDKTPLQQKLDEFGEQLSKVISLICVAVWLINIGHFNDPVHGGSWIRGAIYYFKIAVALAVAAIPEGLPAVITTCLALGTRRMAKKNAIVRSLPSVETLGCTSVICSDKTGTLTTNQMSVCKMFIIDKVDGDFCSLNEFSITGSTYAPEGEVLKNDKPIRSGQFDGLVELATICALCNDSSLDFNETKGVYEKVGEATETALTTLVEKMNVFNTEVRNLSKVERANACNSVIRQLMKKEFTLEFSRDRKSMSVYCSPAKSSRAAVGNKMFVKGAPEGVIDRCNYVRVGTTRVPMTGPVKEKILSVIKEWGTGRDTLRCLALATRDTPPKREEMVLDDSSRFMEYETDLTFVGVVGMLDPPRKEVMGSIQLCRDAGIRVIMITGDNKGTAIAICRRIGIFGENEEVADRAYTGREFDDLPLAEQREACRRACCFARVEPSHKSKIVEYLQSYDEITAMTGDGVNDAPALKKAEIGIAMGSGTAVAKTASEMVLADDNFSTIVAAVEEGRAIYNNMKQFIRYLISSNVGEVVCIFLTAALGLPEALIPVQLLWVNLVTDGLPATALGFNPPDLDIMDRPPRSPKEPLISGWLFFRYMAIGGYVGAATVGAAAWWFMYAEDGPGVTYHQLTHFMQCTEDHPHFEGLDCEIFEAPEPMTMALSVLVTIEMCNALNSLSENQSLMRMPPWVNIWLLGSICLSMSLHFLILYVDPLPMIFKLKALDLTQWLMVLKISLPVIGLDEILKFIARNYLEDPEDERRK
row,SMILES,Kd
1,C/C=C(/C)C(=O)O[C@H]1C(C)=C2[C@H]([C@@H]1OC(=O)CCCCCCC)[C@@](C)(OC(=O)CCCCCCC)C[C@H](OC(=O)CCC)[C@@]1(O)[C@H]2OC(=O)[C@@]1(C)O,2.5 nM
2,C/C=C(/C)C(=O)O[C@H]1C(C)=C2[C@H]([C@@H]1OC(=O)c1ccccc1)[C@@](C)(OC(C)=O)C[C@H](OC(=O)CCC)[C@@]1(O)[C@H]2OC(=O)[C@@]1(C)O,1.5 nM
3,C/C=C(/C)C(=O)O[C@H]1C(C)=C2[C@H]([C@@H]1OC(=O)CCCCCCC)[C@@](C)(OC(C)=O)C[C@H](OC(=O)CCC)[C@@]1(OC(=O)CCC)[C@H]2OC(=O)[C@@]1(C)O,11 nM
4,C/C=C(/C)C(=O)O[C@H]1C(C)=C2[C@H]([C@@H]1OC(=O)CCCCCCC)[C@@](C)(OC(C)=O)C[C@H](OC(=O)CCC)[C@@]1(OC(=O)CCCCC)[C@H]2OC(=O)[C@@]1(C)O,8.5 nM
5,C/C=C(/C)C(=O)O[C@H]1C(C)=C2[C@H]([C@@H]1OC(=O)CCCCCCC)[C@@](C)(OC(C)=O)C[C@H](OC(=O)CCC)[C@@]1(OC(=O)C(C)C)[C@H]2OC(=O)[C@@]1(C)O,13 nM
6,C/C=C(/C)C(=O)O[C@H]1C(C)=C2[C@H]([C@@H]1OC(=O)CCCCCCC)[C@@](C)(OC(C)=O)C[C@H](OC(=O)CCC)[C@@]1(OC(=O)CCCCCCC)[C@H]2OC(=O)[C@@]1(C)O,55 nM
7,C/C=C(/C)C(=O)O[C@H]1C(C)=C2[C@H]([C@@H]1OC(=O)CCCCCCC)[C@@](C)(OC(C)=O)C[C@H](OC(=O)CCC)[C@@]1(OC(C)=O)[C@H]2OC(=O)[C@@]1(C)O,2.6 nM
8,C/C=C(/C)C(=O)O[C@H]1C(C)=C2[C@H]([C@@H]1OC(=O)CCCCCCC)[C@@](C)(OC(C)=O)C[C@H](OC(=O)CCC)[C@@]1(O)[C@H]2O[C@H]2N=C(C)O[C@]21C,1.7 nM
9,C/C=C(/C)C(=O)O[C@H]1C(C)=C2[C@H]([C@@H]1OC(=O)CCCCCCC)[C@@](C)(OC(C)=O)C[C@H](OC(=O)CCC)[C@@]1(O)[C@H]2O[C@H]2N=C(CCC)O[C@]21C,20 nM
10,C/C=C(/C)C(=O)O[C@H]1C(C)=C2[C@H]([C@@H]1OC(=O)CCCCCCC)[C@@](C)(OC(C)=O)C[C@H](OC(=O)CCC)[C@@]1(O)[C@H]2O[C@H]2N=C(CCOCC)O[C@]21C,79 nM
11,C/C=C(/C)C(=O)O[C@H]1C(C)=C2[C@H]([C@@H]1OC(=O)CCCCCCC)[C@@](C)(OC(C)=O)C[C@H](OC(=O)CCC)[C@]13O[C@]1(C)C(=O)O[C@@H]23,13 nM
12,C/C=C(/C)C(=O)O[C@H]1C(C)=C2[C@H]([C@@H]1OC(=O)CCCCCCC)[C@@](C)(OC(C)=O)C[C@H](OC(=O)CCC)[C@@]1(O)[C@H]2O[C@H](OC(C)=O)[C@@]1(C)OC(C)=O (relative stereo),9.4 nM
13,C/C=C(/C)C(=O)O[C@H]1C(C)=C2[C@H]([C@@H]1OC(=O)CCCCCCC)[C@@](C)(OC(C)=O)C[C@H](O)[C@@]1(O)[C@H]2OC(=O)[C@@]1(C)O [DEBUTANOYLTHAPSIGARGIN],10 nM
14,C/C=C(/C)C(=O)O[C@H]1C(C)=C2[C@H]([C@@H]1OC(=O)CCCCCCC)[C@@](C)(OC(C)=O)C[C@H](OC(=O)CCC)[C@@]1(O)[C@H]2OC(=O)[C@@]1(C)O [THAPSIGARGIN],0.2 nM
